Test results: ChEMBL document CHEMBL1157539, “Thousands of chemical starting points for antimalarial lead identification” (Nature, 2010)

Test system: Plasmodium falciparum
Assay: GSK_TCMDC: Inhibition of Plasmodium falciparum 3D7 in whole erythrocytes, using parasite LDH activity as an index of growth.
Assay type: functional, organism-based
Conditions: Plasmodium falciparum, 3D7

Row | Compound | XC50 [nM]
1 | CN(C)CCCNc1c2ccccc2nc2ccccc12 | 1040
2 | O=C(Cn1c(CCc2cccc(F)c2F)cc(=O)c2ccccc21)N(Cc1ccc(-c2ccc(C(F)(F)F)cc2)cc1)C1CCN(CCN2CCOCC2)CC1 | 720
3 | O=C(NCCCCCN1CCC(c2c[nH]c3ccccc23)CC1)c1ccc(Cl)c(Cl)c1 | 1360
4 | CCC(=O)Oc1ccc(NC(=O)c2cccc(OC)c2)cc1 | 771
5 | O=C(Nc1cccc(-c2nn3ncccc3c2-c2ccnc(Nc3ccc(N4CCOCC4)cc3)n2)c1)c1c(F)cccc1F | 158
6 | COc1ccc2nccc([C@@H](O)CN3CCC(NCCOc4ccc(F)cc4Cl)CC3)c2c1 | 276
7 | O=C(CCC1CCCC1)N(Cc1ccc(-c2ccc(CNCCc3ccccc3)cc2)cc1)C1CCCNC1 (stereo unspecified) | 1220
8 | COc1ccc2c(NN=CC=Cc3ccccc3)ccnc2c1 | 770
9 | CC(=O)N(C)c1cccc(C(=O)Nc2cccc(-c3ccc(-c4nc5cc(C(F)(F)F)ccc5[nH]4)cc3)c2)c1 | 1000
10 | CN(CCCCCN1CCC(NC(=O)Nc2ccc(C(F)(F)F)cc2)C1)C(=O)/C=C/c1ccc(Cl)c(Cl)c1 (stereo unspecified) | 771
11 | CCC(=O)c1cc(C(=O)NCCc2cccc(OC)c2)ccc1OC | 902
12 | CC(C)Cc1ccc(N2CCN(CCCCNC(=O)c3ccc(NC(=O)c4ccc(Cl)c(Cl)c4)cc3)CC2)cc1 | 1200
13 | CCOC(=O)NCC(=O)Nc1cccc(-c2cccc(-c3nc4cc(C(F)(F)F)ccc4[nH]3)c2)c1 | 626
14 | CCn1c(-c2nonc2N)nc2c(-c3cccc(NC(=O)Nc4ccc(C#N)cc4)c3)ncc(OCCCN)c21 | 1510
15 | OC(CNc1cccc(Cl)c1)Cn1c2ccc(Cl)cc2c2cc(Cl)ccc21 (stereo unspecified) | 958
16 | O=C(Nc1ccc(OC2CCN(Cc3ccccc3)CC2)c(Cl)c1)c1ccc(F)cc1 | 796
17 | FC(F)(F)c1ccc2[nH]c(-c3ccc(-c4cccc(CN5CCC(CCN6CCCCC6)CC5)c4)cc3)nc2c1 | 153
18 | CC(C)N1CCN(C(CN2CCN(CCCOc3ccc4ccccc4c3)CC2)c2ccc(F)cc2)CC1 (stereo unspecified) | 581
19 | CCCCCc1cc(O)c2c(c1)OC(C)(C)C=C2C1=CCN(Cc2ccsc2)CC1 | 964
20 | COc1ccc(C(=C(C)CC(C)C(=O)O)c2ccccc2)cc1 (stereo unspecified) | 845
21 | COc1ccc(NC(=O)Nc2nc(-c3ccc(Cl)c(C)c3)cs2)cc1N1CCN(C)CC1 | 266
22 | CN(C)CCCNc1nccc(N(C)c2ccc(NC(=O)Nc3cc(C(F)(F)F)ccc3F)cc2)n1 | 980
23 | CC1(C)Cc2c(oc3ncn(CCn4cnc5oc6c(c5c4=N)CC(C)(C)SC6)c(=N)c23)CS1 | 719
24 | Cc1cccc(CNc2ncc(C)c(NCCC(=O)Nc3ccccc3)n2)c1 | 1150

Row | Compound | XC50 [nM]
25 | C#CCCC(=O)Nc1cccc(-c2cccc(-c3nc4cccc(C)c4[nH]3)c2)c1 | 736
26 | COc1cc(CCCON2C(=N)N=C(N)NC2(C)C)cc(OC)c1OC | 39.1
27 | Cc1nc(N)nc(N)c1OCc1cccc2c1ccc1ccccc12 | 98.8
28 | O=C(Nc1ccc2c(c1)CCNCC2)Nc1ccc2ccccc2c1 | 622
29 | COC(=O)Cn1c2ccccc2c2c(N)c(C(=O)OC)c(C)nc21 | 938
30 | Cc1cc(NC(=O)c2coc3cc(F)c(N4CC(C)N(C)C(C)C4)cc23)cnc1-c1ccc(C#N)cc1 (stereo unspecified) | 695
31 | COc1ccc2c(O)c(C3CCC(c4ccc(Cl)cc4)CC3)c(C)nc2c1 (stereo unspecified) | 647
32 | O=C(c1cc2cccc([N+](=O)[O-])c2[nH]1)N1CCC(CCN2CCC(c3c[nH]c4ccccc34)CC2)CC1 | 943
33 | COc1ccc2nccc([C@@H](O)CN3CCC(NS(=O)(=O)c4cc5c(cc4Cl)SCC(=O)N5)CC3)c2c1 | 982
34 | c1ccc(-c2nc(Nc3nc4ccccc4[nH]3)[nH]c2-c2ccccc2)cc1 | 619
35 | COc1cc2nc(C)nc(Nc3ccc(Cc4ccccc4)cc3)c2cc1OC | 730
36 | COc1ccc(C2CC(=O)C3=C(C2)NC(C)=C(C(=O)OC2CCCC2)C3c2ccc(O)cc2)cc1OC (stereo unspecified) | 565
37 | Nc1ccc(Nc2ccnc3ccc(C(F)(F)F)cc23)cc1O | 716
38 | CS(=O)(=O)NCCCNCc1ccc(-c2ccc(-c3nc4cc(C(F)(F)F)ccc4[nH]3)cc2)cc1 | 457
39 | NCCCNc1nccc(N2CCc3ncnc(Nc4ccc(OCc5cccc(F)c5)c(Cl)c4)c3C2)n1 | 832
40 | CCOc1ccc2c(=NN=Cc3ccc(F)cc3)cc(C)[nH]c2c1 | 584
41 | Nc1c(Cl)cc(C(O)CNCCCCCCOCCc2ccc(CO)s2)cc1Cl (stereo unspecified) | 1050
42 | CC[C@]1(C)C[C@@H](NC(=O)NC(=O)c2ccc(OC)cc2)[C@]2(C)[C@H](C)CC[C@]3(CCC(=O)[C@H]32)[C@@H](C)[C@@H]1OC(=O)NC(=O)c1ccc(OC)cc1 | 987
43 | CC(=O)N(Cc1ccc(-c2ccc(CNCCc3ccccc3)cc2)cc1)C1CCN(Cc2ccccc2)CC1 | 939
44 | CCN(CC)CCNc1ccnc2ccc3ccccc3c12 | 219
45 | CS(=O)(=O)c1ccc(CNCc2ccc(-c3cccc(-c4nc5ccccc5[nH]4)c3)cc2)cc1 | 326
46 | Cc1ccn2c(C(=O)N3CCN(c4cccc5c4nc(-c4ccoc4)n5Cc4ccccn4)CC3)c(C)nc2c1 | 203
47 | CC(C)CCOc1ccc(NC(=O)c2cccs2)cc1 | 514
48 | Nc1ncc(Cc2cc(Cl)c(N)c3ncccc23)c(N)n1 | 1120

Row | Compound | XC50 [nM]
49 | COc1cccc(C(=O)NCCc2cccc(Cl)c2)c1OCc1ccccc1 | 1260
50 | Cc1cc2nc(N/C(N)=N/C(=O)NC3CCCCC3)nc(C)c2cc1C | 754
51 | CCOC(=O)c1cn(CC)c2cc(OCc3ccccc3)ccc2c1=O | 947
52 | CCCN(CCC)CCOc1ccc(C(O)(C#CC(O)(c2ccc(OCCN(CCC)CCC)cc2)c2cccc(Cl)c2)c2cccc(Cl)c2)cc1 (stereo unspecified) | 790
53 | Cc1cc(O)c(CNC2CCCCC2)cc1C | 1050
54 | CCCN1CCC=C(c2cccc(Nc3nccc(Nc4cc(OC)ccc4C)n3)c2)C1 | 1040
55 | COc1ccc(-c2ccccc2CNc2nc(NCCc3ccc(O)cc3)nc(N3CCNCC3)n2)cc1 | 1080
56 | O=C(O)C[C@H](NC(=O)[C@@H]1CCCN1C(=O)c1cccc(-c2ccc(Cl)c(Cl)c2)c1)C(=O)O | 863
57 | FC(F)(F)c1cccc(N2CCC(CN3CCC(c4c[nH]c5ccccc45)CC3)CC2)n1 | 980
58 | COc1ccc(-c2cccc(NC(=O)c3ccc(Cl)cc3)c2)cc1CN(C)CCN(C)C | 776
59 | CCOc1cc2ncnc(Nc3ccc(OCc4c(F)cccc4F)c(OC)c3)c2cc1OCC | 821
60 | Cn1nc(C(F)(F)F)cc1-c1ccc(C(=O)Nc2ccc3c(c2)CNCC3(C)C)s1 | 1010
61 | CC(=O)Nc1ccc2[nH]cc(C3CCN(CCC4CCN(C(=O)/C=C/c5ccc(Cl)c(Cl)c5)CC4)CC3)c2c1 | 776
62 | O=C(NC1CCN(c2ccnc3cc(Cl)ccc23)C1)c1ccccc1F (stereo unspecified) | 971
63 | CC(C)(NCc1ccc(OC(F)(F)F)cc1)c1nc(-c2ccc(Cl)c(O)c2)c(-c2ccncc2)[nH]1 | 940
64 | Oc1c(C(Nc2ccccn2)c2ccc(Cl)cc2Cl)ccc2cccnc12 (stereo unspecified) | 892
65 | COc1c(C2CCN(CCCCNC(=O)c3ccc(-c4ccc(C(F)(F)F)cc4)c(C(=O)OC(C)C)c3)CC2)ccc2c1CCCC2 | 858
66 | CCC(Cc1ccccc1)c1cc(O)c(Cc2ccc(-c3ccccc3)cc2)c(=O)o1 (stereo unspecified) | 971
67 | CC(=O)Nc1cccc(C(=O)Nc2cccc(-c3ccc(-c4nc5cccc(C)c5[nH]4)cc3)c2)c1 | 908
68 | COC(=O)Cn1c(C2CCN(CC3CCN(C(=O)/C=C/c4ccc(Cl)c(Cl)c4)CC3)CC2)nc2ccccc21 | 1200
69 | CC(C)NCc1cccc(-c2ccc(NC(=O)c3ccc(F)cc3)cc2)c1 | 850
70 | c1cc(CN2CCCCC2)cc(OCCCNc2ccnc3ccccc23)c1 | 433
71 | N#Cc1ccc(/C=C/C(=O)NCCCCCN2CCCN(C(=O)Nc3ccc(Cl)c(C(F)(F)F)c3)CC2)cc1 | 437
72 | Cc1nccn1CCNC(=O)CN1CCC2(CCC1=O)CC(=O)c1ccccc1O2 (stereo unspecified) | 802

Row | Compound | XC50 [nM]
73 | Cc1cccc2nc(-c3cccc(-c4cccc(NC(=O)CNc5ccc(C(N)=O)cc5)c4)c3)[nH]c12 | 282
74 | O=C(NCCc1ccccc1)N(Cc1ccccc1-c1ccc(CNC2CCCC2)cc1)C1CCN(Cc2ccccc2)CC1 | 1130
75 | Cc1cccc(Nc2nc(N)c3ccccc3n2)c1 | 574
76 | COc1ccc2nc(C)cc(Nc3ccc(Oc4ccc(Br)c5ccccc45)c(Cl)c3)c2c1 | 277
77 | O=C(Nc1cccc(-c2cccc(-c3nc4cc(F)ccc4[nH]3)c2)c1)Nc1ccc(F)c(F)c1F | 89.1
78 | COc1ccc(COc2cc(NCCCN)nc3ccccc23)cc1 | 1280
79 | CC(=O)Nc1ncc(C(=O)Nc2cccc(-c3cccc(-c4nc5ccccc5[nH]4)c3)c2)s1 | 814
80 | CC(C)(C)OC(=O)NCc1ccc(Nc2nnc(-c3ccc(OCC(=O)NCc4ccc(C(C)(C)C)cc4)c([N+](=O)[O-])c3)o2)cc1 | 800
81 | Cc1c[nH]c(CCNC(=O)c2cc(-c3ccc(Cl)cc3)cs2)n1 | 242
82 | O=C(NCCN1CCN(S(=O)(=O)c2ccc(OC3CCNCC3)c(Br)c2)CC1)c1ccc(Cl)c(Cl)c1 | 891
83 | Oc1ccc2c(CNC3CCCCC3)c(O)ccc2c1CNC1CCCCC1 | 43.5
84 | CN1CCN(CC2(Nc3nccc(NCc4ccc(Cl)cc4Cl)n3)CCCCC2)CC1 | 593
85 | O=C(Nc1cccc(OC2CCN(Cc3ccccc3)CC2)c1)Nc1cccc([N+](=O)[O-])c1 | 783
86 | COc1ccc(CN2CCC(NCc3ccc(C(F)(F)F)cc3)CC2)cc1 | 916
87 | O=C(/C=C/c1ccc(Cl)c(Cl)c1)N1CCC(CN2CCC(c3c[nH]c4cnccc34)CC2)CC1 | 219
88 | COc1ccc2nccc([C@@H](O)CN3CCC(NCc4nc5ccccc5s4)CC3)c2c1 | 927
89 | COc1ccc(NC(=O)Nc2ccc(-c3ccncc3)c(C(F)(F)F)c2)cc1N1CCN(C)CC1 | 763
90 | COc1cc(C2C(Oc3ccccc3)C(=O)N2Cc2ccc(F)cc2)cc(OC)c1OC (stereo unspecified) | 956
91 | Cc1ccc(O)c(-c2cc(C(=O)Nc3ccc(S(=O)(=O)N4CCCCC4)cc3)[nH]n2)c1 | 805
92 | CCNc1cc(C(=O)N[C@@H](Cc2ccccc2)[C@H](O)CNCc2cccc(-n3ccnc3)c2)cc(N2CCCC2=O)c1 | 635
93 | COc1ccc(-c2cccc(NC(=O)c3cccc(C#N)c3)c2)cc1CN1CCCN(C)CC1 | 190
94 | CN1C(=O)C(=NN=C(S)N2CCOCC2)c2ccccc21 | 901
95 | CCCCCc1cc(O)c2c(c1)OC(C)(C)CC2C1=CCN(Cc2cccnc2)CC1 (stereo unspecified) | 991
96 | Nc1nc(O)c2c(n1)CCc1c(Br)cccc1-2 | 697
